Results published in US20050239656A1, “Pyridine compounds or salts thereof and herbicides containing the same” (priority 2002, published 2005).

What was measured:
japanese bulrush = assay: Test Example 3: paddy pot test, application under submerged conditions; assay type: in vivo, Scirpus juncoides; details: submerged application at 0.5 leaf stage, visually observed 14 days after application, 0 = non-treated, 100 = complete kill
Procedure, shortened: (§1)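 Paddy soil pots; seeds sown, lightly covered; flooded 0.5–1 cm in greenhouse; wapato tubers planted day 1–2; flood raised to 3–4 cm. Submerged pipette application at 0.5 leaf / primary leaf stage. Visual score day 14, 0–100%.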

soybean [1] = assay: Test Example 1: foliage treatment, upland pot test; assay type: in vivo, Glycine max Merr.; details: crop, active ingredient 1000 g/ha, observed 18th to 23rd day, 0 = non-treated, 100 = complete kill
From the text: (§2) Upland field soil was put into a 1/170,000 ha pot, and seed of various plants were sown. Then, when the plants reached predetermined leaf stages ((1) barnyardgrass: 1.3 to 2.8 leaf stages, (2) crabgrass: 1.0 to 2.8 leaf stages, (3) green foxtail: 1.3 to 2.6 leaf stages, (4) redroot pigweed: 0.1 to 1.2 leaf stages, (5) prickly sida: 0.1 to 1.2 leaf stages, (6) velvetleaf: 0.1 to 1.2 leaf stages, (7) tall morningglory: 0.1 to 1.5 leaf stages, (8) rice: 1.2 to 2.6 leaf stages, (9) wheat: 1.3 to 2.4 leaf stages, (10) corn, 2.1 to 3.2 leaf stages, (11) soybean: 0.1 to 0.4 leaf stage), a wettable powder or emulsifiable concentrate having the compound of the present invention formulated in accordance with a usual formulation method, was weighed so that the active ingredient would be a predetermined amount, and diluted with water in an amount of 500 L/ha. To the diluted solution, 0.1% (v/v) of agricultural spreader was added. The herbicide thus adjusted was applied by a small size sprayer for foliage treatment. On the 18th to 23rd days after the application of the herbicide, the growth of the respective plants was visually observed, and the herbicidal effects were evaluated by the growth controlling degrees (%) ranging from 0 (equivalent to the non-treated plot) to 100 (complete kill), whereby the results shown in Table 3, were obtained.

rice [2] = assay: Test Example 1: foliage treatment, upland pot test; assay type: in vivo, Oryza sativa L.; details: crop, active ingredient 1000 g/ha, observed 18th to 23rd day, 0 = non-treated, 100 = complete kill
From the text: as §2

prickly sida [3] = assay: Test Example 1: foliage treatment, upland pot test; assay type: in vivo, Sida spinosa L.; details: active ingredient 1000 g/ha, observed 18th to 23rd day, 0 = non-treated, 100 = complete kill
From the text: as §2

japanese ribbon wapato = assay: Test Example 3: paddy pot test, application under submerged conditions; assay type: in vivo, Sagittaria pygniaea; details: submerged application at primary leaf stage, visually observed 14 days after application, 0 = non-treated, 100 = complete kill
Procedure, shortened: as §1

crabgrass = assay: Test Example 2: soil surface treatment, upland pot test; assay type: in vivo, Digitaria sanguinalis L.; details: observed 20th to 28th day
Procedure, shortened: (§3)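 Pre-emergence: the soil surface was sprayed 1 day after sowing with wettable powder or emulsifiable concentrate diluted in water at 1,500 L/ha, at a predetermined active ingredient amount. Growth control was scored visually 20–28 days after treatment, 0 (untreated) to 100 (complete kill).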

velvetleaf [4] = assay: as above; assay type: in vivo, Abutilon theophrasti MEDIC.; details: observed 20th to 28th day
Procedure, shortened: as §3

rice (var. Nihonbare) = assay: Test Example 3: paddy pot test, transplanted rice; assay type: in vivo, Oryza sativa L.; details: applied 4th day after transplantation, visually observed 21st day after application, 0 = non-treated, 100 = complete kill
Procedure, shortened: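 Visual crop-injury rating (0 = as untreated, 100 = complete kill, %) taken 21 days post-application. Treatment: formulated compound, water-diluted, pipetted into 3–4 cm flood water at a preset active-ingredient dose, 4 days after transplanting 2-leaf Nihonbare rice 3 cm deep in puddled paddy soil.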

green foxtail [5] = assay: Test Example 1: foliage treatment, upland pot test; assay type: in vivo, Setaria viridis L.; details: active ingredient 1000 g/ha, observed 18th to 23rd day, 0 = non-treated, 100 = complete kill
From the text: as §2

redroot pigweed [6] = assay: Test Example 2: soil surface treatment, upland pot test; assay type: in vivo, Amaranthus retroflexus L.; details: observed 20th to 28th day
Procedure, shortened: as §3

prickly sida [7] = assay: as above; assay type: in vivo, Sida spinosa L.; details: observed 20th to 28th day
Procedure, shortened: as §3

barnyardgrass [8] = assay: as above; assay type: in vivo, Echinochloa crus-galli L.; details: observed 20th to 28th day
Procedure, shortened: as §3

redroot pigweed [9] = assay: Test Example 1: foliage treatment, upland pot test; assay type: in vivo, Amaranthus retroflexus L.; details: active ingredient 1000 g/ha, observed 18th to 23rd day, 0 = non-treated, 100 = complete kill
From the text: as §2

soybean [10] = assay: Test Example 2: soil surface treatment, upland pot test; assay type: in vivo, Glycine max Merr.; details: observed 20th to 28th day
Procedure, shortened: as §3

corn [11] = assay: as above; assay type: in vivo, Zea mays L.; details: observed 20th to 28th day
Procedure, shortened: as §3

green foxtail [12] = assay: as above; assay type: in vivo, Setaria viridis L.; details: observed 20th to 28th day
Procedure, shortened: as §3

barnyardgrass [13] = assay: Test Example 1: foliage treatment, upland pot test; assay type: in vivo, Echinochloa crus-galli L.; details: active ingredient 1000 g/ha, observed 18th to 23rd day, 0 = non-treated, 100 = complete kill
From the text: as §2

rice [14] = assay: Test Example 2: soil surface treatment, upland pot test; assay type: in vivo, Oryza sativa L.; details: observed 20th to 28th day
Procedure, shortened: as §3

velvetleaf [15] = assay: Test Example 1: foliage treatment, upland pot test; assay type: in vivo, Abutilon theophrasti MEDIC.; details: active ingredient 1000 g/ha, observed 18th to 23rd day, 0 = non-treated, 100 = complete kill
From the text: as §2

corn [16] = assay: Test Example 1: foliage treatment, upland pot test; assay type: in vivo, Zea mays L.; details: crop, active ingredient 1000 g/ha, observed 18th to 23rd day, 0 = non-treated, 100 = complete kill
From the text: as §2

barnyardgrass [17] = assay: Test Example 3: paddy pot test, application under submerged conditions; assay type: in vivo, Echinochloa crus-galli L.; details: submerged application at 0.5 leaf stage, visually observed 14 days after application, 0 = non-treated, 100 = complete kill
Procedure, shortened: as §1

SMILES | Growth controlling degree (%) Soybean (soybean [1]) [%] | Growth controlling degree (%) Rice (rice [2]) [%] | Growth controlling degree (%) Prickly sida (prickly sida [3]) [%] | Growth controlling degree (%) Redroot pigweed (redroot pigweed [9]) [%] | Growth controlling degree (%) Barnyardgrass (barnyardgrass [13]) [%] | Growth controlling degree (%) Velvetleaf (velvetleaf [15]) [%] | Growth controlling degree (%) Corn (corn [16]) [%] | Growth controlling degree (%) Japanese bulrush (japanese bulrush; active ingredient 250 g/ha) [%] | Growth controlling degree (%) Japanese ribbon wapato (japanese ribbon wapato; active ingredient 250 g/ha) [%] | Growth controlling degree (%) Crabgrass (crabgrass; active ingredient 500 g/ha) [%] | Growth controlling degree (%) Velvetleaf (velvetleaf [4]; active ingredient 500 g/ha) [%] | Growth controlling degree (%) Barnyardgrass (barnyardgrass [17]; active ingredient 250 g/ha) [%] | Growth controlling degree (%) Rice (rice (var. Nihonbare); active ingredient 250 g/ha) [%] | Growth controlling degree (%) Redroot pigweed (redroot pigweed [6]; active ingredient 500 g/ha) [%] | Growth controlling degree (%) Prickly sida (prickly sida [7]; active ingredient 500 g/ha) [%] | Growth controlling degree (%) Barnyardgrass (barnyardgrass [8]; active ingredient 500 g/ha) [%] | Growth controlling degree (%) Soyabean (soybean [10]; active ingredient 500 g/ha) [%] | Growth controlling degree (%) Corn (corn [11]; active ingredient 500 g/ha) [%] | Growth controlling degree (%) Green foxtail (green foxtail [12]; active ingredient 500 g/ha) [%] | Growth controlling degree (%) Rice (rice [14]; active ingredient 500 g/ha) [%] | other results
CC(C)C(c1cnccc1C(F)(F)F)N(C)C(=O)Cc1ccccc1Cl (stereo not drawn) [I-26] | 50 | 30 | 80 | 90 | 90 | 80 | 30 | – | – | – | – | – | – | – | – | – | – | – | – | – | Growth controlling degree (%) Japanese bulrush (japanese bulrush; active ingredient 500 g/ha): 90%; Growth controlling degree (%) Japanese ribbon wapato (japanese ribbon wapato; active ingredient 500 g/ha): 10%; Growth controlling degree (%) Crabgrass (crabgrass; active ingredient 250 g/ha): 80%; Growth controlling degree (%) Velvetleaf (velvetleaf [4]; active ingredient 250 g/ha): 80%; Growth controlling degree (%) Rice (rice (var. Nihonbare); active ingredient 500 g/ha): 20%; Growth controlling degree (%) Green foxtail (green foxtail [5]): 70%; Growth controlling degree (%) Redroot pigweed (redroot pigweed [6]; active ingredient 250 g/ha): 70%; Growth controlling degree (%) Prickly sida (prickly sida [7]; active ingredient 250 g/ha): 70%; Growth controlling degree (%) Barnyardgrass (barnyardgrass [8]; active ingredient 250 g/ha): 80%; Growth controlling degree (%) Soyabean (soybean [10]; active ingredient 250 g/ha): 0%; Growth controlling degree (%) Corn (corn [11]; active ingredient 250 g/ha): 40%; Growth controlling degree (%) Green foxtail (green foxtail [12]; active ingredient 250 g/ha): 80%; Growth controlling degree (%) Rice (rice [14]; active ingredient 250 g/ha): 10%
CC(C)C(c1cnccc1Cl)N(C)C(=O)Cc1ccc(F)c(F)c1 (stereo not drawn) [I-73] | 70 | 30 | 85 | 60 | 40 | 90 | 0 | – | – | – | – | – | – | – | – | – | – | – | – | – | Growth controlling degree (%) Japanese bulrush (japanese bulrush; active ingredient 125 g/ha): 90%; Growth controlling degree (%) Japanese ribbon wapato (japanese ribbon wapato; active ingredient 125 g/ha): 20%; Growth controlling degree (%) Barnyardgrass (barnyardgrass [17]; active ingredient 125 g/ha): 98%; Growth controlling degree (%) Rice (rice (var. Nihonbare); active ingredient 125 g/ha): 0%
CC(C)C(c1cnccc1Cl)N(C)C(=O)Cc1cccc(C(F)(F)F)c1F (stereo not drawn) [I-74] | 30 | 20 | 80 | 60 | 50 | 90 | 30 | – | – | – | – | – | – | – | – | – | – | – | – | – | –
CCN(C(=O)Cc1cccc(C(F)(F)F)c1)C(c1cnccc1C(F)(F)F)C(C)C (stereo not drawn) [I-75] | 30 | 20 | 80 | 60 | 70 | 90 | 10 | 70 | 40 | 100 | 70 | 100 | 0 | 40 | 80 | 100 | 0 | 10 | 100 | 0 | –
CCN(C(=O)Cc1cccc(C(F)(F)F)c1F)C(c1cnccc1C(F)(F)F)C(C)C (stereo not drawn) [I-76] | 70 | 40 | 70 | 80 | 80 | 90 | 95 | 100 | 60 | 98 | 50 | 100 | 10 | 70 | 100 | 70 | 0 | 0 | 100 | 10 | –
